Results published in patent US7125990B2, “Imidazolyl derivatives as corticotropin releasing factor inhibitors” (Bristol-Myers Squibb COmpany, priority 2001, dated 2006).

Target: T1, CRF1 receptors (Homo sapiens, UniProt P34998)
T1 construct: endogenous in cells; host or cells: IMR-32 cells, transformed with 2.5 µM 5'-bromo-2'-deoxyuridine for 10 days; membrane preparation
T1 sequence (P34998 24-415): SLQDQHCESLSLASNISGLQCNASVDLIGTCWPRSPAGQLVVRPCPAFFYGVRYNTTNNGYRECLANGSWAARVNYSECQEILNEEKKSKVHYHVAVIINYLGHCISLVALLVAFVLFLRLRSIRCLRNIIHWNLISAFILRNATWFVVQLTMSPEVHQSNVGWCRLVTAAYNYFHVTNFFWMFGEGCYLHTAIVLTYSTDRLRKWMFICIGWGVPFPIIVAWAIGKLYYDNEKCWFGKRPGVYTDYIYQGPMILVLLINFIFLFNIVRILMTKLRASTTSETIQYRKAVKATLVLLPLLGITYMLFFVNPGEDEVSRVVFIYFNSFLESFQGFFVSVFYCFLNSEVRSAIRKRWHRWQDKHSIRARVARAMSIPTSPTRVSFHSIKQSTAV
Experiment: CRF1 receptor radioligand binding assay ([125I]-oCRF competition, IMR-32 cell membranes)
Conditions: IMR-32 cell membranes, [125I]-oCRF 100 pM; read-out: Ki (CRF-1R)
Outline: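 Buffer: Tris pH 7.2 with MgCl2, BSA, Triton X-100, aprotinin, leupeptin; reaction stopped with ice-cold wash and filtered. Nonspecific binding set with 10 μM oCRF.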

Row | Compound | Ki [nM]
1 | C=CCN(CC=C)Cc1c(C(F)(F)F)nc2n(-c3c(C)cc(C)cc3C)c(Cl)cn12 [Example 345, Diallyl-[6-chloro-2-trifluoromethyl-7-(2,4,6-trimethyl-phenyl)-7H-imidazo[1,2-a]imidazol-3-ylmethyl]-amine] | < 10
2 | CCCCN(CC)Cc1c(C(F)(F)F)nc2n(-c3c(C)cc(C)cc3C)c(Cl)cn12 [Example 346, Butyl-[6-chloro-2-trifluoromethyl-7-(2,4,6-trimethyl-phenyl)-7H-imidazo[1,2-a]imidazol-3-ylmethyl]-ethyl-amine] | < 100
3 | Cc1cc(C)c(N2CCCn3c2nc(C(F)(F)F)c3CN2CCCC2Cc2ccccc2)c(C)c1 (centres unmarked) [Example 347, 3-(2-Benzyl-pyrrolidin-1-ylmethyl)-2-trifluoromethyl-8-(2,4,6-trimethyl-phenyl)-5,6,7,8-tetrahydro-imidazo[1,2-a]pyrimidine] | < 10
4 | (2,2,3,3,3-Pentafluoro-propyl)-(2,2,2-trifluoro-ethyl)-[2-trifluoromethyl-8-(2,4,6-trimethyl-phenyl)-8H-1,3a,8-triaza-cyclopenta[α]inden-3-ylmethyl]-amine [Example 162] | < 1000
5 | Phenethyl-[2-trifluoromethyl-8-(2,4,6-trimethyl-phenyl)-8H-1,3a,8-triaza-cyclopenta[α]inden-3-ylmethyl]-(3,3,3-trifluoro-propyl)-amine [Example 168] | < 1000
